Columns and labels:
Experiment in all cases: scanMAX Kinase assay panel
Format in all cases: binding
Conditions in all cases: read-out: % control
[1] = target: PRKD2 (Homo sapiens (Human), UniProt Q9BZL6)
Method in brief: (§1)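 Measurements came from scanMAX kinase selectivity profiling. Each value was normalised by subtracting the positive control and dividing by the span between the DMSO vehicle and the positive control, then multiplied by 100.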

[2] = target: PRKCE (Homo sapiens (Human), UniProt Q02156)
Method in brief: as §1

[3] = target: RET(V804L) (Homo sapiens (Human), UniProt P07949, V804L)
Method in brief: as §1

[4] = target: MEK6 (Homo sapiens (Human), UniProt P52564)
Method in brief: as §1

[5] = target: ACVR2B (Homo sapiens (Human), UniProt Q13705)
Method in brief: as §1

[6] = target: p38-beta (Homo sapiens (Human), UniProt Q15759)
Method in brief: as §1

[7] = target: ABL1(F317I)-phosphorylated (Homo sapiens (Human), UniProt P00519, F317I)
Method in brief: as §1

[8] = target: MARK2 (Homo sapiens (Human), UniProt Q7KZI7)
Method in brief: as §1

[9] = target: TNK1 (Homo sapiens (Human), UniProt Q13470)
Method in brief: as §1

[10] = target: KIT(A829P) (Homo sapiens (Human), UniProt P10721, A829P)
Method in brief: as §1

[11] = target: PKN2 (Homo sapiens (Human), UniProt Q16513)
Method in brief: as §1

[12] = target: SYK (Homo sapiens (Human), UniProt P43405)
Method in brief: as §1

[13] = target: AKT1 (Homo sapiens (Human), UniProt P31749)
Method in brief: as §1

[14] = target: DDR1 (Homo sapiens (Human), UniProt Q08345)
Method in brief: as §1

[15] = target: AXL (Homo sapiens (Human), UniProt P30530)
Method in brief: as §1

[16] = target: FGFR3 (Homo sapiens (Human), UniProt P22607)
Method in brief: as §1

[17] = target: WNK2 (Homo sapiens (Human), UniProt Q9Y3S1)
Method in brief: as §1

[18] = target: MAP3K4 (Homo sapiens (Human), UniProt Q9Y6R4)
Method in brief: as §1

[19] = target: RSK1(Kin.Dom.1-N-terminal) (Homo sapiens (Human), UniProt Q15418)
Method in brief: as §1

[20] = target: EGFR(S752-I759del) (Homo sapiens (Human), UniProt P00533, DEL752-759)
Method in brief: as §1

[21] = target: SNRK (Homo sapiens (Human), UniProt Q9NRH2)
Method in brief: as §1

[22] = target: TESK1 (Homo sapiens (Human), UniProt Q15569)
Method in brief: as §1

[23] = target: MYLK (Homo sapiens (Human), UniProt Q15746)
Method in brief: as §1

[24] = target: MUSK (Homo sapiens (Human), UniProt O15146)
Method in brief: as §1

[25] = target: LTK (Homo sapiens (Human), UniProt P29376)
Method in brief: as §1

[26] = target: PIP5K2B (Homo sapiens (Human), UniProt P78356)
Method in brief: as §1

[27] = target: CIT (Homo sapiens (Human), UniProt O14578)
Method in brief: as §1

[28] = target: FES (Homo sapiens (Human), UniProt P07332)
Method in brief: as §1

[29] = target: ABL1(H396P)-phosphorylated (Homo sapiens (Human), UniProt P00519, H396P)
Method in brief: as §1

[30] = target: MLK2 (Homo sapiens (Human), UniProt Q02779)
Method in brief: as §1

[31] = target: PLK4 (Homo sapiens (Human), UniProt O00444)
Method in brief: as §1

[32] = target: MRCKA (Homo sapiens (Human), UniProt Q5VT25)
Method in brief: as §1

[33] = target: ROCK1 (Homo sapiens (Human), UniProt Q13464)
Method in brief: as §1

[34] = target: CSNK1G1 (Homo sapiens (Human), UniProt Q9HCP0)
Method in brief: as §1

[35] = target: PCTK3 (Homo sapiens (Human), UniProt Q07002)
Method in brief: as §1

[36] = target: CDK11 (Homo sapiens (Human), UniProt Q9BWU1)
Method in brief: as §1

[37] = target: PRKCD (Homo sapiens (Human), UniProt Q05655)
Method in brief: as §1

[38] = target: ABL1(F317L)-phosphorylated (Homo sapiens (Human), UniProt P00519, F317L)
Method in brief: as §1

[39] = target: IKK-beta (Homo sapiens (Human), UniProt O14920)
Method in brief: as §1

Chain of FES (P07332 whole entry): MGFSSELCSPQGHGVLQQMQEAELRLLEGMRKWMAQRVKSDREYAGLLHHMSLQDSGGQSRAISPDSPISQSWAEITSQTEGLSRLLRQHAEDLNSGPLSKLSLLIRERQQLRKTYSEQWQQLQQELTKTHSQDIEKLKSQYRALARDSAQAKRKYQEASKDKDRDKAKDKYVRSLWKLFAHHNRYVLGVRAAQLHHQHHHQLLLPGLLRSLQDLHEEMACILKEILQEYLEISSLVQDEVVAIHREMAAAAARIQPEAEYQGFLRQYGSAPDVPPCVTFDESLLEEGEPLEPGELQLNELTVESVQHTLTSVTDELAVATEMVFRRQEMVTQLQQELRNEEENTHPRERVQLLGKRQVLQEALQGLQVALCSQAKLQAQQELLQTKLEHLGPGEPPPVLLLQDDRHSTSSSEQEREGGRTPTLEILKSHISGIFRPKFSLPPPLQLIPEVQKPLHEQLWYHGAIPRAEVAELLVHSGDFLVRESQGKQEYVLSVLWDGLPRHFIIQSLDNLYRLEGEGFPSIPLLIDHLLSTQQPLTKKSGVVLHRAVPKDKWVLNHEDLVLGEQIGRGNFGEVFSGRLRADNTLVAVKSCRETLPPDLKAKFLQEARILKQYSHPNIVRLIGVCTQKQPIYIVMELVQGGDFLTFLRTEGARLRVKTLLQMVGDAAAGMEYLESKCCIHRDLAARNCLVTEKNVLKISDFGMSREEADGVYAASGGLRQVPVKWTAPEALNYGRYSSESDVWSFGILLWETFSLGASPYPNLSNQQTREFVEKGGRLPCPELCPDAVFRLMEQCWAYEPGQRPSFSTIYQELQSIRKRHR
Chain of IKK-beta (O14920 whole entry): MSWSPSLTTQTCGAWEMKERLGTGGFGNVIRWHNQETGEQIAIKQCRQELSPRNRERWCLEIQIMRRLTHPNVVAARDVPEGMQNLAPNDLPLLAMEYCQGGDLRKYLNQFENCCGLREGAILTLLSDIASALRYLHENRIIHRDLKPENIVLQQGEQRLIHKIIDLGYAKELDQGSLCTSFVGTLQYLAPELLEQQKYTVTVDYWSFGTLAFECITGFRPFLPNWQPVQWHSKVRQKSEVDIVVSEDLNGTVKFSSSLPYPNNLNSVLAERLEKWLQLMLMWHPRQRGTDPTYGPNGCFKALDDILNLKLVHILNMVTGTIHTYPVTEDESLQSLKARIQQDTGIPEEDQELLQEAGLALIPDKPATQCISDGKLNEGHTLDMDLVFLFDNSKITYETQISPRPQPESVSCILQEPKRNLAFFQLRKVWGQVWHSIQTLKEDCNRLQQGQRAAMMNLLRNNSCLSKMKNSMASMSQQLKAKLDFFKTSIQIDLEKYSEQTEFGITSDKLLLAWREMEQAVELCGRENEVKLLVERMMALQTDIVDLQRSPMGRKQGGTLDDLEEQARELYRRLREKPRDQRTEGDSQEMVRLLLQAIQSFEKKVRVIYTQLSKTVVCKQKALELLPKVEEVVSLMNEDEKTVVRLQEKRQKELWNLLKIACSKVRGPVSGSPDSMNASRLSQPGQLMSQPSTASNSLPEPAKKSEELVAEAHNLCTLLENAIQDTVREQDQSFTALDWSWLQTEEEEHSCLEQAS
Chain of AXL (P30530 26-894): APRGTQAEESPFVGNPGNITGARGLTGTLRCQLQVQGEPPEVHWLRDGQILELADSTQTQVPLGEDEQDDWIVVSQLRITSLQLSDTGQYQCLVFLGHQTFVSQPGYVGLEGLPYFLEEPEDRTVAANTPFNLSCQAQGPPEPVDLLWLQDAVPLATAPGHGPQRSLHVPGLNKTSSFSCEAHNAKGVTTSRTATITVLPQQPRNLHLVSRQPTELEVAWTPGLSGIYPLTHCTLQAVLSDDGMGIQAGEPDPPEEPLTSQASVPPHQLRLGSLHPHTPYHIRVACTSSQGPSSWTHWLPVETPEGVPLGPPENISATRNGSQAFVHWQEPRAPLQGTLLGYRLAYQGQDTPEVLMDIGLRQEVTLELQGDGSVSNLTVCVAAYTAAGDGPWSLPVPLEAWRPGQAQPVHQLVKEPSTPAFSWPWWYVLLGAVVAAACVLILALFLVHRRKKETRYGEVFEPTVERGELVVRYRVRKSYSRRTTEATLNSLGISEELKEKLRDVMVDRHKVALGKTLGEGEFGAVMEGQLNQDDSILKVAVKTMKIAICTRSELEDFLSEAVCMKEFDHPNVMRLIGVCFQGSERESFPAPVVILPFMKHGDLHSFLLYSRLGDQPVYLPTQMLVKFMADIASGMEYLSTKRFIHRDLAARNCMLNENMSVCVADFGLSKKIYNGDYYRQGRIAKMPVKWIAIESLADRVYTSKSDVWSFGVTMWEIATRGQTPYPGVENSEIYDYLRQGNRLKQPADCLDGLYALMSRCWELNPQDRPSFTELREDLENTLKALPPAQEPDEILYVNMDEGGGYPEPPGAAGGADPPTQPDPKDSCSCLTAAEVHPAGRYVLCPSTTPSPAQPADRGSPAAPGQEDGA
Chain of PKN2 (Q16513 whole entry): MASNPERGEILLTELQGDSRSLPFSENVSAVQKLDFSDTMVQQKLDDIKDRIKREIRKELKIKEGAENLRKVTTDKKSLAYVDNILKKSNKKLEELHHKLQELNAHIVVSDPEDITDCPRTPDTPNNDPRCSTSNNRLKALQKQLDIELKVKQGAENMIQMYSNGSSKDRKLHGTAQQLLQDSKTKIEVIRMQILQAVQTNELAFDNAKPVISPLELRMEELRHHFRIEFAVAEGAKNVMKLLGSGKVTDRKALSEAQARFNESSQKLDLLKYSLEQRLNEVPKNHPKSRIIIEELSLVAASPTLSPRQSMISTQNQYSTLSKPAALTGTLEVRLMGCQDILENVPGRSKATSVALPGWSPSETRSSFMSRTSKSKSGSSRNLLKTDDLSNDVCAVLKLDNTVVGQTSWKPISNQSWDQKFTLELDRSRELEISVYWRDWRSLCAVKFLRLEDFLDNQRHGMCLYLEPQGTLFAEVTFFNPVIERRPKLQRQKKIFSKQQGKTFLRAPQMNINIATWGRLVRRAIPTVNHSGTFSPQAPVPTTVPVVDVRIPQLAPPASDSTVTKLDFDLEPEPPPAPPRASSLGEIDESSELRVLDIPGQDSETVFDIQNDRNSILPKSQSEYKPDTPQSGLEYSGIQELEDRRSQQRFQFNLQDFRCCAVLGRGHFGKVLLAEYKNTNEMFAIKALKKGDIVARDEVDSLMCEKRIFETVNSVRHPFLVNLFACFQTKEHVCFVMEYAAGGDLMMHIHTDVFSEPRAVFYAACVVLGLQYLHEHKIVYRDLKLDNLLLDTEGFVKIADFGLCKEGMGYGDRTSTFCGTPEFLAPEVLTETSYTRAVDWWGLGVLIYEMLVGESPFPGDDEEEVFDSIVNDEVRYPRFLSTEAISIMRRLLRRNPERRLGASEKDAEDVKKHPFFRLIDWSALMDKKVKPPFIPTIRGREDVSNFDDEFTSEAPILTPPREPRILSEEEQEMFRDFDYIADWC
Chain of MEK6 (P52564 whole entry): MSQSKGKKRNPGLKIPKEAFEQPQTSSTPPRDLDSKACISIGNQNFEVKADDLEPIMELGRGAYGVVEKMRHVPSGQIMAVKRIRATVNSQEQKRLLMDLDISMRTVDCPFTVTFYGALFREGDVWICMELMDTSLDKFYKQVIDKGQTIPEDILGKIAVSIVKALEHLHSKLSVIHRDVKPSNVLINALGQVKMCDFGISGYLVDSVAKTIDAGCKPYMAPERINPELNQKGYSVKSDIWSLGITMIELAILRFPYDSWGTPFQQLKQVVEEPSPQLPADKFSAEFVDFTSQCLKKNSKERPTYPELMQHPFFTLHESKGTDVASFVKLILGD
Chain of PCTK3 (Q07002 whole entry): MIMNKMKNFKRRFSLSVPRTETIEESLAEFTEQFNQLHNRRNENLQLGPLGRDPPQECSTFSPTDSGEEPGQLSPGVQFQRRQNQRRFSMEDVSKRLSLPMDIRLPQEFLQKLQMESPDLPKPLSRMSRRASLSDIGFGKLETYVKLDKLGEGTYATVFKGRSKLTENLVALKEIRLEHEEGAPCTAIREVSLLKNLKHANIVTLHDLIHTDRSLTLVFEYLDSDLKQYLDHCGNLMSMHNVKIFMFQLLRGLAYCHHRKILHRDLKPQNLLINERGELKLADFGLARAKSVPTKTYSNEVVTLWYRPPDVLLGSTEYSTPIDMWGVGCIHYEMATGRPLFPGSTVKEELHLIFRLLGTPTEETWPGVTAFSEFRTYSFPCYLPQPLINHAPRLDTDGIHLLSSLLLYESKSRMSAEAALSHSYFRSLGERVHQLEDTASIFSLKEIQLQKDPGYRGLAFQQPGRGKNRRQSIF
Chain of RSK1(Kin.Dom.1-N-terminal) (Q15418 62-321): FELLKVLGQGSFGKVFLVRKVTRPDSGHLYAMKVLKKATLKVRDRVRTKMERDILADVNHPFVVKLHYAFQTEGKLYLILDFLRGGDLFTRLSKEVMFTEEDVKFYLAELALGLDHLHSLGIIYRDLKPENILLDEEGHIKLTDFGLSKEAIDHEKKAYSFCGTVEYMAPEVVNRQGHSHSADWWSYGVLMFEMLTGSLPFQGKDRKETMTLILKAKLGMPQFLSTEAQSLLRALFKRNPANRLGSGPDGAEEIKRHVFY
Chain of CSNK1G1 (Q9HCP0 whole entry): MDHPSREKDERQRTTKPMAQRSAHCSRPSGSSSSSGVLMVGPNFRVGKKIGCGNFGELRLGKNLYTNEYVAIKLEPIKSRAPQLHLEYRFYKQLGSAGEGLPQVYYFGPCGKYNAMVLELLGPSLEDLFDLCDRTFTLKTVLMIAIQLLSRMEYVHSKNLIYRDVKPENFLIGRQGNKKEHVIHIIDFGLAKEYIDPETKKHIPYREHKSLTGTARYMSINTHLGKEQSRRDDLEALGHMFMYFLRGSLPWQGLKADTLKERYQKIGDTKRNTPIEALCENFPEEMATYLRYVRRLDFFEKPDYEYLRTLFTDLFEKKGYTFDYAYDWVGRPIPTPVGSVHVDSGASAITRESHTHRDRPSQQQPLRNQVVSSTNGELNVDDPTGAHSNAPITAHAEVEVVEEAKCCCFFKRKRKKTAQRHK

In the case of `CCNc1cc(Nc2ccc(C(=O)N3CCC(N4CCOCC4)CC3)cc2OC)nc2[nH]cc(C(F)(F)F)c12` [Example 57, (4-((4-(ethylamino)-3-(trifluoromethyl)-1H-pyrrolo[2,3-b]pyridin-6-yl)amino)-3-methoxyphenyl) (4-morpholinopiperidin-1-yl)methanone], the remaining binding at 1 µM [1] is reported as 83%, the remaining binding at 1 µM [2] is reported as 64% and the remaining binding at 1 µM [3] is reported as 91%. The remaining binding at 1 µM [4] was 72%, the remaining binding at 1 µM [5] was 98% and the remaining binding at 1 µM [6] was 76%. It also gave a remaining binding at 1 µM [7] of 100%, a remaining binding at 1 µM [8] of 93% and a remaining binding at 1 µM [9] of 100%. It also gave a remaining binding at 1 µM [10] of 100%, a remaining binding at 1 µM [11] of 92% and a remaining binding at 1 µM [12] of 68%. The remaining binding at 1 µM [13] was 97%, the remaining binding at 1 µM [14] was 98% and the remaining binding at 1 µM [15] was 100%. It also gave a remaining binding at 1 µM [16] of 94%, a remaining binding at 1 µM [17] of 100% and a remaining binding at 1 µM [18] of 79%. For the same compound, the remaining binding at 1 µM [19] was 76%, the remaining binding at 1 µM [20] was 75% and the remaining binding at 1 µM [21] was 100%. The remaining binding at 1 µM [22] was 79%, the remaining binding at 1 µM [23] was 7.8% and the remaining binding at 1 µM [24] was 100%. For the same compound, the remaining binding at 1 µM [25] was 20%, the remaining binding at 1 µM [26] was 100% and the remaining binding at 1 µM [27] was 66%. For the same compound, the remaining binding at 1 µM [28] was 87%, the remaining binding at 1 µM [29] was 100% and the remaining binding at 1 µM [30] was 77%. The remaining binding at 1 µM [31] was 47%, the remaining binding at 1 µM [32] was 95% and the remaining binding at 1 µM [33] was 100%. The remaining binding at 1 µM [34] was 88%, the remaining binding at 1 µM [35] was 86% and the remaining binding at 1 µM [36] was 67%. For the same compound, the remaining binding at 1 µM [37] was 87%, the remaining binding at 1 µM [38] was 100% and the remaining binding at 1 µM [39] was 100%.

`CCNc1cc(Nc2ccc(C(=O)N3CCC(N4CCOCC4)CC3)cc2OC)nc2[nH]cc(C#N)c12` [Example 18, 4-(ethylamino)-6-((2-methoxy-4-(4-morpholinopiperidine-1-carbonyl)phenyl)amino)-1H-pyrrolo[2,3-b]pyridine-3-carbonitrile] gave a remaining binding at 1 µM [1] of 2%, a remaining binding at 1 µM [2] of 77% and a remaining binding at 1 µM [3] of 97%. The remaining binding at 1 µM [4] was 53%, the remaining binding at 1 µM [5] was 100% and the remaining binding at 1 µM [6] was 77%. The remaining binding at 1 µM [7] was 80%, the remaining binding at 1 µM [8] was 89% and the remaining binding at 1 µM [9] was 81%. For the same compound, the remaining binding at 1 µM [10] was 99%, the remaining binding at 1 µM [11] was 92% and the remaining binding at 1 µM [12] was 66%. For the same compound, the remaining binding at 1 µM [13] was 100%, the remaining binding at 1 µM [14] was 98% and the remaining binding at 1 µM [15] was 98%. It also gave a remaining binding at 1 µM [16] of 93%, a remaining binding at 1 µM [17] of 91% and a remaining binding at 1 µM [18] of 96%. The remaining binding at 1 µM [19] was 73%, the remaining binding at 1 µM [20] was 99% and the remaining binding at 1 µM [21] was 100%. It also gave a remaining binding at 1 µM [22] of 90%, a remaining binding at 1 µM [23] of 6% and a remaining binding at 1 µM [24] of 97%. For the same compound, the remaining binding at 1 µM [25] was 6.2%, the remaining binding at 1 µM [26] was 87% and the remaining binding at 1 µM [27] was 71%. For the same compound, the remaining binding at 1 µM [28] was 89%, the remaining binding at 1 µM [29] was 85% and the remaining binding at 1 µM [30] was 72%. For the same compound, the remaining binding at 1 µM [31] was 40%, the remaining binding at 1 µM [32] was 100% and the remaining binding at 1 µM [33] was 9.1%. For the same compound, the remaining binding at 1 µM [34] was 43%, the remaining binding at 1 µM [35] was 86% and the remaining binding at 1 µM [36] was 98%. It also gave a remaining binding at 1 µM [37] of 75%, a remaining binding at 1 µM [38] of 100% and a remaining binding at 1 µM [39] of 77%.
